What is called IC50 is the concentration that gives 50% inhibition.

One assay has as its target T1, PDE2A (Homo sapiens, UniProt O00408).
T1 construct: made in house; host or cells: SF21 insect cells (baculovirus)
Nature of the assay: Inhibition of recombinant PDE2A (expressed in baculovirus/SF21-cells), [3H]-cAMP SPA. The class given is biochemical. As for the experimental part:
Inhibition of Recombinant PDE2A (Expressed in Baculovirus/SF21-Cells)
PDE2A (NM002599) was cloned and the gene was inserted in the baculovirus and the enzyme-protein expressed in SF21-cells. The enzyme was isolated from these cells by harvesting the cells by an centrifugation at 200 g to collect the cells. The cells were resuspended in 50 mM Tris-HCl/5 mM MgCl2 buffer (pH=7.4) (Sigma, Deisenhofen, Germany; Merck, Darmstadt, Germany) and lysed by a sonication of the cells (three times for 15 seconds, Labsonic U, Fa. Braun, Degersheim, Switzerland, level “high”). The membrane fraction of PDE2A was obtained by a centrifugation at 48 000 g for 1 h, resuspended in buffer and stored at −70° C.
PDE2A activity was determined in a one step procedure in microtiterplates. The reaction mixture of 100 μl contained 50 mM Tris-HCl/5 mM MgCl2 buffer (pH=7.4) (Sigma, Deisenhofen, Germany; Merck, Darmstadt, Germany), 0.5 μM [3H]-cAMP (Amersham, Buckinghamshire, UK), 1000 nM cGMP and the enzyme. Non-specific enzyme activity was tested in the absence of cGMP. The reaction was initiated by addition of the substrate solution and was carried out at 37° C. for 30 minutes. Enzymatic activity then was stopped by addition of 25 μl SPA-beads (Amersham-Pharmacia). One hour later the mixture was measured in a liquid scintillation counter for microtiterplates (Microbeta Trilux). For pipetting of the incubation mixture the robot Biomek (Fa. Beckman) was routinely used.
For determination of IC50 values the Hill-plot, 2-parameter-model, was used.

A further assay has as its target T2, PDE10A (Homo sapiens, UniProt Q9Y233).
T2 construct: made in house; host or cells: SF21 insect cells (baculovirus)
Nature of the assay: Inhibition of recombinant PDE10A (baculovirus/SF21 system), [3H]-cAMP SPA. Type of assay: biochemical. To be noted: recombinant PDE10A1, cytosolic; 0.1 μM [3H]-cAMP, 37° C., 30 minutes; read-out: PDE10A IC50. How it is done: Inhibition of Recombinant PDE10A (Baculovirus/SF21 System)
The gene was than inserted into a baculovirus vector, ligated with the baculovirus DNA. The enzyme-protein was expressed in SF21-cells. The enzyme was isolated from these cells by harvesting the cells by an centrifugation at 500 g to collect the cells.
The cells were resuspended in 50 mM Tris-HCl/1 mM EDTA/250 mM Sucrose buffer, pH=7.4 (Sigma, Deisenhofen, Germany; Merck, Darmstadt, Germany) and lysed by sonification of the cells (three times for 15 seconds, Labsonic U, Fa. Braun, Degersheim, Switzerland, level “high”). The cytosolic PDE10A was obtained by a centrifugation at 48,000 g for 1 h in the supernatant and stored at −70° C.
PDE activity was determined in a one step procedure in microtiter plates. The reaction mixture of 100 μl contained 50 mM Tris-HCl/5 mM MgCl2 buffer (pH=7.4, Sigma, Deisenhofen, Germany; Merck, Darmstadt, Germany) 0.1 μM [3H]-cAMP (Amersham, Buckinghamshire, UK) and the enzyme. Non-specific enzyme activity was determined without the enzyme. The reaction was initiated by addition of the substrate solution and was carried out at 37° C. for 30 minutes. Enzymatic activity then was stopped by addition of 25 μl Ysi-SPA-beads (Amersham-Pharmacia). One hour later the mixture was measured in a liquid scintillation counter for microtiter plates (Microbeta Trilux). The Biomek 2000 (Beckman) was used routinely for pipetting of the incubation mixture. […] For determination of IC50 values the Hill-plot, 2-parameter-model, was used.

T1 sequence (O00408 whole entry): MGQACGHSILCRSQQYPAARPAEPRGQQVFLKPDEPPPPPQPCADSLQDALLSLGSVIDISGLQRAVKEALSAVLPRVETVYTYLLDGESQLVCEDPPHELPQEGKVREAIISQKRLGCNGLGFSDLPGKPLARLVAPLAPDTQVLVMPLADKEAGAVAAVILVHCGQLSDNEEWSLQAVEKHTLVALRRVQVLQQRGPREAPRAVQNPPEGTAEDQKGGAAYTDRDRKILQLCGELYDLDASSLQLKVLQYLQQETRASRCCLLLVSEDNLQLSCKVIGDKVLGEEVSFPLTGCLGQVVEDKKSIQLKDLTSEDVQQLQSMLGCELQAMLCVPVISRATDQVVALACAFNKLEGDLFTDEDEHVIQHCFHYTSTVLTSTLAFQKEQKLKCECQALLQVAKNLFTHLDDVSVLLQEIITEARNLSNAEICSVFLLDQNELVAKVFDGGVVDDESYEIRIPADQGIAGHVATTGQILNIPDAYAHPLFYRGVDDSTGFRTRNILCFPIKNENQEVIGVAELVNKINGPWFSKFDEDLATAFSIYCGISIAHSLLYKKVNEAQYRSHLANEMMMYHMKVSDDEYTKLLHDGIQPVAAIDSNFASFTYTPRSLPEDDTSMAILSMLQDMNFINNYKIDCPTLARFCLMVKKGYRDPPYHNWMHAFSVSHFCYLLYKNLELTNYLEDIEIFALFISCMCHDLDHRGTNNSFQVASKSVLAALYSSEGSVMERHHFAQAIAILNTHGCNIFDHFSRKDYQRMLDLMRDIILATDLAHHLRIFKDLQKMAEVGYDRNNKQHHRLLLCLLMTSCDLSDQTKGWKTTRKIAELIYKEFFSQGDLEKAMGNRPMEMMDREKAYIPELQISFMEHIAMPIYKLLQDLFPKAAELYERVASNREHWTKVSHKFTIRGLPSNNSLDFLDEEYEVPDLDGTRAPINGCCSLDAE
T2 sequence (Q9Y233 1-779 isoform Q9Y233-1): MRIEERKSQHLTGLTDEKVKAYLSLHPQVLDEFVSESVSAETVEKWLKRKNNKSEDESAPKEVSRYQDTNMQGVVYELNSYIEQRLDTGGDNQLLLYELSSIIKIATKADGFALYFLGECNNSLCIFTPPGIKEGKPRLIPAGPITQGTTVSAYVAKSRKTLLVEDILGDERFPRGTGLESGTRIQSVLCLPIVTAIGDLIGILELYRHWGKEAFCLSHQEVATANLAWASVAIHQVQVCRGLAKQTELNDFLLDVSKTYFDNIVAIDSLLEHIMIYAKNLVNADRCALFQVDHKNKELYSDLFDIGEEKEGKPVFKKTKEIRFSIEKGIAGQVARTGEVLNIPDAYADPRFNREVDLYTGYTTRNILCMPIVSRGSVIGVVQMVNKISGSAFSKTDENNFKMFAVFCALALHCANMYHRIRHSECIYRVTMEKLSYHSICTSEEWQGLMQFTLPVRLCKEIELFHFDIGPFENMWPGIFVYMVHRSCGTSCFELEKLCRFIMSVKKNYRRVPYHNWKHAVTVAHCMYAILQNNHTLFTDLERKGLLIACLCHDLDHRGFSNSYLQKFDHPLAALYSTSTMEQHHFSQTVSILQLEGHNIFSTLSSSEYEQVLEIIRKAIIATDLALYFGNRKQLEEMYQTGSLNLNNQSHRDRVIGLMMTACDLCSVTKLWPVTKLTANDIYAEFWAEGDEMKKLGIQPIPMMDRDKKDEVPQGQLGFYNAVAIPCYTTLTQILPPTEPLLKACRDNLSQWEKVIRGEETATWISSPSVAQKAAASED

Take `COc1cc(F)cc2c1nnc1c(C)nc(-c3cccnc3)n12` [Example 109, 8-fluoro-6-methoxy-3-methyl-1-pyridin-3-ylimidazo[5,1-c][1,2,4]benzotriazine]: the IC50 at PDE2A was greater than 5000 nM; on PDE10A, 102 nM.

`COc1cc(F)c2nnc3c(C)nc(-c4ccc(F)cc4Cl)n3c2c1` [Example 70, 1-(2-chloro-4-fluorophenyl)-6-fluoro-8-methoxy-3-methylimidazo[5,1-c][1,2,4]benzotriazine]: the concentration for half-maximal inhibition (IC50) was determined as 22.8 nM on PDE2A and 12.5 nM at PDE10A.

With `COc1cc(O)cc2c1nnc1c(C)nc(-c3cnccc3C)n12` [Example 149, 6-methoxy-3-methyl-1-(4-methylpyridin-3-yl)benzo[e]imidazo[5,1-c][1,2,4]triazin-8-ol], the IC50 stood at 451 nM on PDE2A and 22 nM at PDE10A.

As for `COc1cc(N2CCOCC2)cc2c1nnc1c(C)nc(-c3cccnc3C)n12` [Example 64, 6-methoxy-3-methyl-1-(2-methylpyridin-3-yl)-8-morpholin-4-ylimidazo[5,1-c][1,2,4]benzotriazine], the IC50 at PDE2A was determined as 70.4 nM; at PDE10A, 1.92 nM.

As for `COc1cc(F)c2nnc3c(C)nc(-c4ccc(F)nc4C)n3c2c1` [Example 93, 6-fluoro-1-(6-fluoro-2-methylpyridin-3-yl)-8-methoxy-3-methylimidazo[5,1-c][1,2,4]benzotriazine], the IC50 came to 312 nM on PDE2A and 252 nM at PDE10A.

Take `COc1cc(F)cc2c1nnc1c(C)nc(-c3sccc3C)n12` [Example 119, 8-fluoro-6-methoxy-3-methyl-1-(3-methylthiophen-2-yl)imidazo[5,1-c][1,2,4]benzotriazine]: the results for the IC50 on PDE2A and on PDE10A were 269 nM and 1.64 nM, respectively.

In the case of `COc1cc(F)cc2c1nnc1c(C)nc(-c3cnccc3C)n12` [Example 123, 8-fluoro-6-methoxy-3-methyl-1-(4-methylpyridin-3-yl)imidazo[5,1-c][1,2,4]benzotriazine], the IC50 on PDE2A came to 2380 nM; at PDE10A, 25.4 nM.

Take `COc1cc(F)c2nnc3c(C)nc(-c4c(C)noc4C)n3c2c1` [Example 89, 1-(3,5-dimethylisoxazol-4-yl)-6-fluoro-8-methoxy-3-methylimidazo[5,1-c][1,2,4]benzotriazine]: the IC50 at PDE2A worked out at 819 nM; at PDE10A, 623 nM.

Take `COc1cc(OCc2ccccc2)cc2c1nnc1c(C)nc(-c3cnccc3C)n12` [Example 157, 8-(benzyloxy)-6-methoxy-3-methyl-1-(4-methylpyridin-3-yl)imidazo[5,1-c][1,2,4]benzotriazine]: the IC50 was determined as 277 nM at PDE2A and 5.32 nM on PDE10A.

`COc1ccccc1-c1nc(C)c2nnc3c(OC)cc(F)cc3n12` [Example 100, 8-fluoro-6-methoxy-1-(2-methoxyphenyl)-3-methylimidazo[5,1-c][1,2,4]benzotriazine]: the IC50 worked out at 894 nM on PDE2A and 6.53 nM on PDE10A.

For the molecule `COc1cc(F)c2nnc3c(C)nc(-c4ccc(C)cc4Cl)n3c2c1` [Example 71, 1-(2-chloro-4-methylphenyl)-6-fluoro-8-methoxy-3-methylimidazo[5,1-c][1,2,4]benzotriazine], the IC50 is 5.53 nM at PDE2A and 11.4 nM on PDE10A.

Regarding `COc1cc(F)c2nnc3c(C)nc(-c4c(C)nn(C)c4C)n3c2c1` [Example 85, 6-fluoro-8-methoxy-3-methyl-1-(1,3,5-trimethyl-1H-pyrazol-4-yl)imidazo[5,1-c][1,2,4]benzotriazine], the IC50 came to 37.3 nM at PDE2A and 55.2 nM on PDE10A.

As to `COc1cc(C(F)(F)F)cc2c1nnc1c(C)nc(-c3ccoc3)n12` [Example 143, 1-(Furan-3-yl)-6-methoxy-3-methyl-8-(trifluoromethyl)benzo[e]imidazo[5,1-c][1,2,4]triazine], the IC50 on PDE2A was greater than 1000 nM; on PDE10A, 57 nM.

Take `COc1cccc2c1nnc1c(C)nc(-c3ccncc3C)n12` [Example 62, 6-methoxy-3-methyl-1-(3-methylpyridin-4-yl)imidazo[5,1-c][1,2,4]benzotriazine]: the IC50 stood at 442 nM on PDE2A and 8.34 nM on PDE10A.

On to `COc1cc(N2CCOCC2)cc2c1nnc1c(C)nc(-c3ccncc3C)n12` [Example 63, 6-methoxy-3-methyl-1-(3-methylpyridin-4-yl)-8-morpholin-4-ylimidazo[5,1-c][1,2,4]benzotriazine], for which the IC50 was determined as 437 nM at PDE2A and 3.99 nM on PDE10A.

In the case of `COc1cc(F)c2nnc3c(C)nc(-c4cc(OC(F)(F)F)ccc4Cl)n3c2c1` [Example 83, 1-[2-chloro-5-(trifluoromethoxy)phenyl]-6-fluoro-8-methoxy-3-methylimidazo[5,1-c][1,2,4]benzotriazine], the results for the IC50 on PDE2A and at PDE10A were 16.5 nM and 65.7 nM, respectively.

As to `COc1cc(F)cc2c1nnc1c(C)nc(-c3ccc(C)cc3Cl)n12` [Example 112, 1-(2-chloro-4-methylphenyl)-8-fluoro-6-methoxy-3-methylimidazo[5,1-c][1,2,4]benzotriazine], the results for the IC50 at PDE2A and at PDE10A were 636 nM and 1.88 nM, respectively.

Regarding `COc1cc(F)c2nnc3c(C)nc(-c4cc(F)ccc4Cl)n3c2c1` [Example 80, 1-(2-chloro-5-fluorophenyl)-6-fluoro-8-methoxy-3-methylimidazo[5,1-c][1,2,4]benzotriazine], the results for the IC50 on PDE2A and on PDE10A were 9.43 nM and 7.09 nM, respectively.

Turning to `COc1cc(N2CCOCC2)cc2c1nnc1c(C)nc(-c3ccccc3Cl)n12` [Example 65, 1-(2-chlorophenyl)-6-methoxy-3-methyl-8-morpholin-4-ylimidazo[5,1-c][1,2,4]benzotriazine], the IC50 was 50.4 nM on PDE2A and 0.85 nM at PDE10A.

`COc1cc(F)c2nnc3c(C)nc(-c4c(C)n[nH]c4C)n3c2c1` [Example 96, 1-(3,5-dimethyl-1H-pyrazol-4-yl)-6-fluoro-8-methoxy-3-methylimidazo[5,1-c][1,2,4]benzotriazine]: the figures for the IC50 at PDE2A and at PDE10A were 40.3 nM and 53.1 nM, respectively.

Take `COc1cc(F)c2nnc3c(C)nc(-c4ccc(F)cc4C)n3c2c1` [Example 69, 6-fluoro-1-(4-fluoro-2-methylphenyl)-8-methoxy-3-methylimidazo[5,1-c][1,2,4]benzotriazine]: the IC50 on PDE2A was determined as 55.5 nM; at PDE10A, 34.7 nM.

In the case of `COc1cc(F)cc2c1nnc1c(C)nc(-c3ccc(C)cc3F)n12` [Example 114, 8-fluoro-1-(2-fluoro-4-methylphenyl)-6-methoxy-3-methylimidazo[5,1-c][1,2,4]benzotriazine], the concentration for half-maximal inhibition (IC50) at PDE2A came to 1060 nM; at PDE10A, 17.1 nM.

For the molecule `COc1cc(F)cc2c1nnc1c(C)nc(-c3sc(C)nc3C)n12` [Example 127, 1-(2,4-dimethyl-1,3-thiazol-5-yl)-8-fluoro-6-methoxy-3-methylimidazo[5,1-c][1,2,4]benzotriazine], the IC50 was found to be 3420 nM on PDE2A and 11.7 nM at PDE10A.

`COc1cc(OC)c2nnc3c(C)nc(-c4cnccc4C)n3c2c1` [Example 45, 6,8-dimethoxy-3-methyl-1-(4-methylpyridin-3-yl)imidazo[5,1-c][1,2,4]benzotriazine]: the results for the IC50 at PDE2A and on PDE10A were 775 nM and 4.16 nM, respectively.

As to `COc1cc(F)cc2c1nnc1c(C)nc(-c3c(C)noc3C)n12` [Example 115, 1-(3,5-dimethylisoxazol-4-yl)-8-fluoro-6-methoxy-3-methylimidazo[5,1-c][1,2,4]benzotriazine], the results for the IC50 on PDE2A and on PDE10A were greater than 10000 nM and 67 nM, respectively.

The values above are taken from patent US20100120763A1, “IMIDAZO[5,1-C][1,2,4]BENZOTRIAZINE DERIVATIVES AS INHIBITORS OF PHOSPHODIESTERASES” (priority 2008, published 2010).
